Measured values as given in ChEMBL document CHEMBL5512616, “pH regulators and their inhibitors in tumor microenvironment” (Eur J Med Chem, 2024).
Values joined by “and” are separate entries in the source; they are usually repeats but may differ in a detail not shown here. Identical values can stand only once. Values belong to the compound of their own block, whether it stands above or below them.

Assays:
[1] = biological target: T1, Sodium/hydrogen exchanger 1 (Homo sapiens, UniProt P19634); assay type: cell-based, Platelet
T1 sequence (P19634 whole entry): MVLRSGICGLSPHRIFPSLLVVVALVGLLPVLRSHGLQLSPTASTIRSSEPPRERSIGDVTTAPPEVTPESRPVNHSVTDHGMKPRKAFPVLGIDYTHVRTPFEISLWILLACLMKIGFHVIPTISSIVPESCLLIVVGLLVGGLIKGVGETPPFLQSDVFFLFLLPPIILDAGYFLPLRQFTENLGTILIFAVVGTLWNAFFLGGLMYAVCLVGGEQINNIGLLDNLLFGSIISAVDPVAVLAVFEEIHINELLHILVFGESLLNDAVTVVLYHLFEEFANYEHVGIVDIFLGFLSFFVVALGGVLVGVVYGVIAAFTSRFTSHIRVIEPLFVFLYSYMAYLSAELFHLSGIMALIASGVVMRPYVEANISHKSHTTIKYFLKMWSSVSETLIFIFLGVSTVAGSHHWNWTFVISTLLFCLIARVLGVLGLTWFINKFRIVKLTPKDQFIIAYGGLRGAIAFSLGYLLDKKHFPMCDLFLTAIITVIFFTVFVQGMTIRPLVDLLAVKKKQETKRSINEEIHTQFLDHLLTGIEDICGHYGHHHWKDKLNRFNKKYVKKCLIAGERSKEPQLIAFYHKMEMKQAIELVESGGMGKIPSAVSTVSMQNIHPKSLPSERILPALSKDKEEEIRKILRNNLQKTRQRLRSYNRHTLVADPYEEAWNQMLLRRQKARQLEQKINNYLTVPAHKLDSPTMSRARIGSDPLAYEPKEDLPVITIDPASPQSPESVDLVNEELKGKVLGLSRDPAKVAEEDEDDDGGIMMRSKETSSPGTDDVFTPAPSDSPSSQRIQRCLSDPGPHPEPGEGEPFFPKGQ

Carbonic anhydrase 2 [2] = biological target: T2, Carbonic anhydrase 2 (Homo sapiens, UniProt P00918)
MCF7 [3] = test: cells; conditions: Homo sapiens
HepG2 = test: cells; conditions: Homo sapiens
A549 = test: cells; conditions: Homo sapiens
Carbonic anhydrase 9 = Carbonic anhydrase 9 (Homo sapiens, UniProt Q16790)
[4] = biological target: T3, Monocarboxylate transporter 1 (Homo sapiens, UniProt P53985)
T3 sequence (P53985 whole entry): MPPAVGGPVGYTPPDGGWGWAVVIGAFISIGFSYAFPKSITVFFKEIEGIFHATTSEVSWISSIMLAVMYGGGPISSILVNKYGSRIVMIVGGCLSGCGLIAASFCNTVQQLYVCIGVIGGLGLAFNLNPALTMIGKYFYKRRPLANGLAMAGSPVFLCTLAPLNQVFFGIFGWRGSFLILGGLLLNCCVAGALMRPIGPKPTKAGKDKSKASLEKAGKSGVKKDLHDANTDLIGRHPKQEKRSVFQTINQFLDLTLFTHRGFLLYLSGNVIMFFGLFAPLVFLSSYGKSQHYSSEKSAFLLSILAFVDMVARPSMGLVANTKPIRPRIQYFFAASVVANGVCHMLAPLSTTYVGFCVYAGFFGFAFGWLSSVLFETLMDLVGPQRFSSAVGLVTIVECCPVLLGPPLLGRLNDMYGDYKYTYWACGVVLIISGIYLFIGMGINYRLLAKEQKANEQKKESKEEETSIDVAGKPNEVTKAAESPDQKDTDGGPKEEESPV

Carbonic anhydrase 2 [5] = biological target: T2, Carbonic anhydrase 2; remark: listed apart in the source
[6] = biological target: T3, Monocarboxylate transporter 1; remark: listed apart in the source
Carbonic anhydrase 2 [7] = biological target: T2, Carbonic anhydrase 2; remark: listed apart in the source
[8] = biological target: T1, Sodium/hydrogen exchanger 1
Raji = test: cells; conditions: Homo sapiens, 96 h
[9] = biological target: T4, Monocarboxylate transporter 4 (Homo sapiens, UniProt O15427)
T4 sequence (O15427 whole entry): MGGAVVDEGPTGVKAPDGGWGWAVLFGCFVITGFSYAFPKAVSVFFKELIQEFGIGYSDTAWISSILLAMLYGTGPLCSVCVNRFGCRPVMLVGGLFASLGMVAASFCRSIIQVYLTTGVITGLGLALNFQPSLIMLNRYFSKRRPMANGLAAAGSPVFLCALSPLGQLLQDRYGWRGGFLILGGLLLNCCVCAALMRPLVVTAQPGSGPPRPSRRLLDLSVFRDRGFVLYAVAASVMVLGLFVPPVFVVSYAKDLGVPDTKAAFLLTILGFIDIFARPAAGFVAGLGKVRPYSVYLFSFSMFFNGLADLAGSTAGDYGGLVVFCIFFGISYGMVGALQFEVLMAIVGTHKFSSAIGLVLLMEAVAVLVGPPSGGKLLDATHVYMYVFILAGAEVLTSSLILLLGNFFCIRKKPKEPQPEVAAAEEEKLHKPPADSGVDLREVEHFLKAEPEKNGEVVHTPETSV

[10] = biological target: T3, Monocarboxylate transporter 1; remark: listed apart in the source
[11] = biological target: T3, Monocarboxylate transporter 1; remark: listed apart in the source
[12] = biological target: T5, Monocarboxylate transporter 1 (Rattus norvegicus, UniProt P53987)
T5 sequence (P53987 whole entry): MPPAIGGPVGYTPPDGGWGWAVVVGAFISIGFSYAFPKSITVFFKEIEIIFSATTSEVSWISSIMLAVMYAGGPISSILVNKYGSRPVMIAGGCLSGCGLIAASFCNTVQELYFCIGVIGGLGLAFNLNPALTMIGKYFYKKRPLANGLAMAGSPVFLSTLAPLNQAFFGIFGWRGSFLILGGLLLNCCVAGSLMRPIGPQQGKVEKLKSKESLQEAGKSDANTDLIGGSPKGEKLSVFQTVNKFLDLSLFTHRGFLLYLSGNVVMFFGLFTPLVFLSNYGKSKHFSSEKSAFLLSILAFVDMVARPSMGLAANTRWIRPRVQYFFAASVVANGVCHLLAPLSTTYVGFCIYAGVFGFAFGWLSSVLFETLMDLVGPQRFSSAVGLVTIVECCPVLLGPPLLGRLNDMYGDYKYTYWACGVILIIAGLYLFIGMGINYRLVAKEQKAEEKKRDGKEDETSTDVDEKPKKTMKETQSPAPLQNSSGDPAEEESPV

MCF7 [13] = test: cells; conditions: Homo sapiens, MCF7, 96 h
[14] = biological target: T3, Monocarboxylate transporter 1; remark: listed apart in the source
[15] = biological target: T4, Monocarboxylate transporter 4; remark: listed apart in the source

IC50 [1]: 1300 nM
Structure (SMILES): NC(N)=NC(=O)c1cc(Cl)c(N)nc1N

Ki (Carbonic anhydrase 2 [2]): 85.7 nM
IC50 (MCF7 [3]): 4680 nM
IC50 (HepG2): 2700 nM
IC50 (A549): 1550 nM
Structure (SMILES): Nc1nn(C(=O)C23CC4CC(CC(C4)C2)C3)c(N)c1/N=N/c1ccccc1

IC50 [1]: 800 nM and 200 nM
Structure (SMILES): CC(C)c1ccc(C(=O)NC(=N)N)cc1S(C)(=O)=O [CARIPORIDE]

Ki (Carbonic anhydrase 2 [2]): 44 nM
Ki (Carbonic anhydrase 9): 8.9 nM
Structure (SMILES): NS(=O)(=O)c1ccc(CN/C=C/C(=O)/C=C/c2cc3ccccc3oc2=O)cc1

IC50 [4]: 59 nM
Structure (SMILES): CN(Cc1ccccc1)c1ccc2cc(C(=O)O)c(=O)oc2c1

Ki (Carbonic anhydrase 2 [5]): 204 nM
Structure (SMILES): NS(=O)(=O)c1ccc(NCC(=O)N/N=C2\C(=O)N(Cc3ccccc3)c3ccccc32)cc1

IC50 [6]: 6210 nM
Structure (SMILES): O=c1c(O)c(-c2ccc(O)cc2O)oc2cc(O)cc(O)c12 [MORIN]

Ki (Carbonic anhydrase 2 [7]): > 10000 nM
Structure (SMILES): O=C(Oc1ccc2c(-c3ccccc3)cc(=O)oc2c1)c1ccccc1

IC50 [8]: 10 nM
Structure (SMILES): NC(N)=NC(=O)c1ccc2c(Br)cccc2c1

Ki (Carbonic anhydrase 2 [7]): > 10000 nM
Structure (SMILES): COc1ccc(CSc2nnc(COc3ccc4c(C)cc(=O)oc4c3)o2)cc1

EC50 (Raji): ≤ 100 nM
Structure (SMILES): CC(C)c1cc(=O)c2c(OCc3ccccc3CO)cc(OCc3ncccc3C(F)(F)F)cc2o1

Ki (Carbonic anhydrase 2 [7]): > 100000 nM
Structure (SMILES): Cc1nc(-c2cc3ccccc3oc2=O)ccc1C(=O)/C=C/c1ccccc1

IC50 [9]: 0.36 nM
IC50 [10]: 64000 nM
Structure (SMILES): CC[C@](C)(OCc1cc(-c2cccc(OC3CC3)c2)n(-c2ccccc2N2CCC2)n1)C(=O)O

Ki [11]: > 500000 nM
Structure (SMILES): CC(C)(OCc1nn(Cc2ccccc2)c2ccccc12)C(=O)O [BINDARIT]

IC50 [1]: 2300 nM
Structure (SMILES): NC(N)=NC(=O)c1nc(Cl)c(N)cc1N

IC50 [8]: 500 nM
Structure (SMILES): N=C(N)NC(=O)[C@H]1C[C@@H]1c1ccccc1

IC50 [8]: 17 nM
Structure (SMILES): Cc1nc2c(cc1C(=O)N=C(N)N)CCCCC2

IC50 [8]: 68 nM
Structure (SMILES): COc1ccc(CN2CCN(CCOc3ccc(C(=O)NC(=N)N)cc3NC(=O)c3sccc3C)CC2)c(OC)c1OC

IC50 [12]: 66 nM
Structure (SMILES): CCN(CC)c1ccc(/C=C(\C#N)C(=O)O)cc1

IC50 [8]: 3530 nM
Structure (SMILES): COc1ccc(CN2CCN(Cc3ccc(C(=O)N=C(N)N)cc3NC(=O)c3ccc(C(F)(F)F)cc3)CC2)c(OC)c1OC

IC50 [8]: 155 nM
Structure (SMILES): Cc1c[nH]c(=O)n(CC(=O)N=C(N)N)c1=O

IC50 [8]: 6 nM
Structure (SMILES): NC(N)=NC(=O)c1cc2cccc3c2n1C(=O)CCCC3

IC50 [8]: 108 nM
Structure (SMILES): CCCCCOc1ccc(C(=O)CN2CCN(Cc3ccc(OC)c(OC)c3OC)CC2)cc1C(=O)N=C(N)N

Ki (Carbonic anhydrase 2 [2]): > 10000 nM
Structure (SMILES): CC(C(=O)NCCOc1ccc2oc(=O)ccc2c1)c1ccc(-c2ccccc2)c(F)c1 (stereo not drawn)

IC50 [1]: 2 nM
Structure (SMILES): Cc1cc(C(C)C)c(S(C)(=O)=O)cc1C(=O)N=C(N)N

Ki (Carbonic anhydrase 2 [2]): > 10000 nM
Ki (Carbonic anhydrase 9): 61.5 nM
Structure (SMILES): Cc1cccc(N2C(=O)CSC2c2cn(-c3ccccc3)nc2-c2cc3ccccc3oc2=O)c1 (stereo not drawn)

IC50 (MCF7 [13]): 10400 nM
Structure (SMILES): C=C(C)[C@@H]1CC[C@]2(COS(N)(=O)=O)CC[C@]3(C)[C@H](CC[C@@H]4[C@@]5(C)CC[C@H](OS(N)(=O)=O)C(C)(C)[C@@H]5CC[C@]43C)[C@@H]12

IC50 [14]: 85 nM
IC50 [15]: > 50000 nM
Structure (SMILES): O=C(Nc1ccccc1C(=O)O)c1cc(S(=O)(=O)c2ccccc2)ccc1Cl

IC50 [1]: 25 nM
Structure (SMILES): Cc1ccc(-c2cc(C)c(C(=O)N=C(N)N)cc2S(C)(=O)=O)cc1

EC50 (Raji): ≤ 100 nM
Structure (SMILES): CC(C)c1cc(=O)c2c(OCc3ccccc3CO)cc(OCc3ccnc4ccccc34)cc2o1

Ki (Carbonic anhydrase 2 [7]): > 100000 nM
Structure (SMILES): O=C(CN1C(=O)CSC1=O)c1cc2ccccc2oc1=O
